From patent US20250154130A1, “NOVEL THR BETA ANALOGS AND USES THEREOF” (MADRIGAL PHARMACEUTICALS, INC., priority 2022, published 2025)

What was measured:
TR beta LBD-GST = biological target: T1, TR beta LBD-GST (Homo sapiens, UniProt P10828); test: Thyroid Receptor Beta Coactivator - Agonist (LanthaScreen TR-FRET coactivator recruitment assay); assay type: biochemical; conditions: 1% DMSO, relative to T3 response
T1 construct: incubated with the TR alpha LBD-GST or TR beta LBD-GST; purchased ThermoFIsher
T1 sequence (P10828 217-461 limits assumed): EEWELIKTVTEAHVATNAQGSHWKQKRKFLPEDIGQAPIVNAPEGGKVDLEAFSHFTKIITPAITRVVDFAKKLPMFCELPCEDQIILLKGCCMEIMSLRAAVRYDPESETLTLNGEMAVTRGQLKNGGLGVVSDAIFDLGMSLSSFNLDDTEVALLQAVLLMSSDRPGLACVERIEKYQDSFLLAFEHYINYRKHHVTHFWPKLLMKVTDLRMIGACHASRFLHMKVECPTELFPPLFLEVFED
Procedure: Thyroid receptor beta and thyroid receptor alpha coactivator recruitment assays were performed using LanthaScreen™ TR-FRET TR alpha or beta Coactivator Assay Kits (ThermoFIsher). The control agonist 3,3′,5-Triiodo-L-thyronine sodium salt, T3 (SIGMA) was used to validate the assay. Test compound and/or vehicle was incubated with the TR alpha LBD-GST or TR beta LBD-GST and coactivator peptide (Fluorescein-SRC2-2 (LKEKHKILHRLLQDSSSPV) (SEQ ID NO: 1)) for 30 minutes at RT. Determination of the amount of complex formed was read spectrofluorimetrically (excitation: 337 nm, emission: 520/490 nm) on a PHERAstar FS instrument (BMG). […] Compounds were screened at 30, 10, 3, 1, 0.3, 0.1, and 0.03 μM.

TR alpha LBD-GST = biological target: T2, TR alpha LBD-GST (Homo sapiens, UniProt P10827); test: Thyroid Receptor Alpha Coactivator - Agonist (LanthaScreen TR-FRET coactivator recruitment assay); assay type: biochemical; conditions: 1% DMSO, relative to T3 response
T2 construct: incubated with the TR alpha LBD-GST or TR beta LBD-GST; purchased ThermoFIsher
T2 sequence (P10827 163-410 isoform P10827-2 limits assumed, other chains not shown): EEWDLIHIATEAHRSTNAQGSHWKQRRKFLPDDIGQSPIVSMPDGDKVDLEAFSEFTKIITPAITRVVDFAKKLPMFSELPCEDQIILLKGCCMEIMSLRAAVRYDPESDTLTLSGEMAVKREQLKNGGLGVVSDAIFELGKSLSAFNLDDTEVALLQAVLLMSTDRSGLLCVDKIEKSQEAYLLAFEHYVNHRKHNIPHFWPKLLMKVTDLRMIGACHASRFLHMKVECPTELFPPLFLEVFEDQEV
Procedure: Thyroid receptor beta and thyroid receptor alpha coactivator recruitment assays were performed using LanthaScreen™ TR-FRET TR alpha or beta Coactivator Assay Kits (ThermoFIsher). The control agonist 3,3′,5-Triiodo-L-thyronine sodium salt, T3 (SIGMA) was used to validate the assay. Test compound and/or vehicle was incubated with the TR alpha LBD-GST or TR beta LBD-GST and coactivator peptide (Fluorescein-SRC2-2 (LKEKHKILHRLLQDSSSPV) (SEQ ID NO: 1)) for 30 minutes at RT. Determination of the amount of complex formed was read spectrofluorimetrically (excitation: 337 nm, emission: 520/490 nm) on a PHERAstar FS instrument (BMG). […]

Agonist Response (TR beta LBD-GST; test compound 10 nM): −4.5 | Agonist Response (TR beta LBD-GST; test compound 0.03 mcM): −1.2 | Agonist Response (TR beta LBD-GST; test compound 0.1 mcM): 0.7 | Agonist Response (TR beta LBD-GST; test compound 0.3 mcM): 10.5 | Agonist Response (TR beta LBD-GST; test compound 1 mcM): 28.7 | Agonist Response (TR beta LBD-GST; test compound 3 mcM): 31.1 | Agonist Response (TR beta LBD-GST; test compound 10 mcM): 32.6 | Agonist Response (TR beta LBD-GST; test compound 30 mcM): 31.8 | Agonist Response (TR alpha LBD-GST; test compound 10 nM): 1.1 | Agonist Response (TR alpha LBD-GST; test compound 0.03 mcM): 1.4 | Agonist Response (TR alpha LBD-GST; test compound 0.1 mcM): 2.2 | Agonist Response (TR alpha LBD-GST; test compound 0.3 mcM): 3.9 | Agonist Response (TR alpha LBD-GST; test compound 1 mcM): 12.7 | Agonist Response (TR alpha LBD-GST; test compound 3 mcM): 19.2 | Agonist Response (TR alpha LBD-GST; test compound 10 mcM): 19.5 | Agonist Response (TR alpha LBD-GST; test compound 30 mcM): 18.6
SMILES: N#Cc1cn(-c2cc(Cl)c(Oc3n[nH]c(=O)c4ccccc34)c(Cl)c2)c(=O)[nH]c1=O [Compound g, 1-(3,5-dichloro-4-((4-oxo-3,4-dihydrophthalazin-1-yl)oxy)phenyl)-2,4-dioxo-1,2,3,4-tetrahydropyrimidine-5-carbonitrile]
